Read-outs that look alike come from different tables or passages of the source.
Legend:
Fyn = type: cell-based, rat
TrkC = type: cell-based, rat; conditions: MeHg, Pb or paraquat
How it was run: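 Western blot of cell lysates or sonicated tissue in RAPI buffer, SDS-PAGE to PVDF, primary antibodies (phospho-Erk, phospho-Akt, receptor, phospho-tyrosine), HRP secondary and luminol detection. Signaling analysed in presence of the cognate ligand: EGF for EGFR, NT-3 for TrkC, HGF for c-Met.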

O-2A/OPCs [1] = test: Intracellular ROS / redox state measurement; type: cell-based, rat; conditions: O-2A/OPCs in PDGF; MeHg, exposure levels as low as 20 nM
Method: Cells were plated in 96-well microplates and grown to about 60% continence. […] Cells were then washed once with HBSS and growth medium to remove free probe. Then, fresh growth medium was added and a baseline fluorescence reading was taken prior to treatment. For NAC pre-treatment. […] Fluorescence was measured in a Wallac 1420 Victor2 multilabel counter (PerkinElmer) using excitation and emission wavelengths of 485 nm and 535 nm, respectively, at different time courses as indicated in the figures. Results are presented as the value change from baseline by the formula (Ftexp−Ftbase)/Ftbase normalized with the control group, where Ftexp=fluorescence at any given time during the experiment in a give well and Ftbase=baseline fluorescence of the same well.

PDGFRα [2] = test: PDGFRα levels in brain tissue after developmental exposure; type: in vivo, SJL mice; conditions: 100 or 250 ppb MeHg in maternal drinking water; cerebellum, hippocampus, corpus callosum; 7 and 21 d after birth
From the text: Anti-phosphorylated Erk monoclonal, anti-Erk monoclonal, anti-TrkC polyclonal anti-Fyn polyclonal, anti-EGFR polyclonal, anti-c-Met polyclonal, anti-phospho-tyrosine monoclonal, and anti-PDGFRα polyclonal antibodies were obtained from Santa Cruz Biotechnology (Santa Cruz, Calif., United States). Anti-c-Cbl monoclonal antibody was obtained from BD PharMingen (San Diego, Calif., United States). Anti-phosphorylated Akt monoclonal and anti-Akt polyclonal antibodies were obtained from Cell Signaling Technology (Beverly, Mass., United States). Anti-phosphorylated PDGPRα polyclonal antibody was obtained from Biosource (Carlsbad, Calif., United States). The cell culture samples were collected and lysed in RAPI buffer, whereas dissected tissue samples were sonicated in RAPI buffer. Samples were resolved on SDS-PAGE gels and transferred to PVDF membranes (PerkinElmer Life Science. Wellesley, Mass., United States), After being blocked in 5% skim milk in PBS containing 0.1% Tween 20, membranes were incubated with a primary antibody, followed by incubation with an HRP-conjugated secondary antibody (Santa Cruz Biotechnology). Membranes were visualized using Western Blotting Luminol Reagent (Santa Cruz Biotechnology). […]

PDGFRα [3] = test: PDGFR ubiquitylation (immunoprecipitation assay); type: cell-based, rat; conditions: MeHg exposure
Method: For the co-immunoprecipitation assay, anti-c-Cbl monoclonal antibody (BD PharMingen) or anti-PDGFRα polyclonal antibody (Santa Cruz Biotechnology) was added to the pre-cleared cell lysates (250 μg of total protein), and the mixtures were gently rocked for 2 h at 4° C. A total of 30 μl of protein A/G agarose was then added to the mixture followed by rotating at 4° C. overnight. The protein A/G agarose was then spun down and washed thoroughly three times. The precipitates were resolved on an 8% SDS-PAGE gel and then were subjected to Western blot analysis using an anti-p-Tyr (for c-Cbl phosphorylation assay) or ubiquitin (for PDGFR ubiquitylation assay) antibody (Santa Cruz Biotechnology).

[4] = 14 mo of age, cited from earlier work
O-2A/OPCs [5] = test: In vivo BrdU incorporation assay with Olig2 co-labeling, corpus callosum; parameters: species or system mice; conditions: low-level MeHg in maternal drinking water, P14
Method: To analyze DNA synthesis in vivo, mice were injected with a single dose of 5-BrdU (50 mg/kg body weight), dissolved in 0.9% NaCl, filtered (0.2 μm), and applied intraperitoneally 2 h prior to perfusion. After removal and sectioning of brains, 40-μm free-floating sections were incubated for 2 h in 50% forraamide/2×SSC (0.3 M NaCl and 0.03 M sodium citrate) at 65° C., rinsed twice for 5 min each in 2×SSC, incubated for 30 min in 2N HCl at 37° C., and rinsed for 10 min in 0.1 M boric acid (pH 8.5) at room temperature. Several rinses in TBS were followed by incubation in TBS/0.1% Triton X-100/3% donkey serum (TBS-plus) for 30 min. Sections were then incubated with monoclonal rat anti-BrdU antibody (1:2,500; Harlan Sera-Lab, Loughborough, United Kingdom) and polyclonal rabbit anti-Olig2 in TBS-plus for 48 h at 4° C. […]
Quantification of BrdU+ cells was accomplished with unbiased counting methods by confocal microscopy. BrdU immunoreaetive nuclei were counted in one focal plane to avoid over-sampling. In corpus callosum, BrdU+ cells were counted in every sixth section (40 μm) from a coronal, series between interaural AP+5.2 mm and AP+3.0 mm in the entire extension of the rostral and medial part of the corpus callosum. Quantitative data are presented as mean percentage normalized to control animals. […]

| SMILES | effect on EtOH-induced Fyn phosphorylation (Fyn; co-exposure to NAC) | effect on Aβ-induced increase in phosphorylated Fyn (Fyn; co-exposure with Aβ) | levels of TrkC after toxicant exposure (TrkC) | cells more oxidized (intracellular redox state) (O-2A/OPCs [1]) | levels of PDGFRα in brain (PDGFRα [2]) | ubiquitylation of PDGFRα (PDGFRα [3]) | brain levels of MeHg ([4]; 1 ppm in drinking water from conception) [mg/kg] | brain levels of MeHg ([4]; 3 ppm in drinking water) [mg/kg] | reduction in the number of total BrdU+ cells (O-2A/OPCs [5]) [%] |
| --- | --- | --- | --- | --- | --- | --- | --- | --- | --- |
| CC(=O)N[C@@H](CS)C(=O)O [NAC, N-acetyl-L-cysteine] | blocked | reversed |  |  |  |  |  |  |  |
| [CH3][Hg][Cl] [MeHg, methylmercury] |  |  | no reduction in levels of TrkC | approximately 20% | clear and significant reductions | enhanced ubiquitylation | 1.20 | 3.66 | 20 |

From US20080171710A1, “The Redox/Fyn/c-Cbl Pathway” (priority 2007, published 2008)
